Earlier results in patent US20240335409A1, “SYSTEMS AND METHODS FOR DELIVERY OF PHENYLALANINE AND LACTATE” (Transdermal Biotechnology, Inc., priority 2022, published 2024).

C[C@H](O)C(=O)N[C@@H](Cc1ccccc1)C(=O)O [Lac-Phe, N-lactoyl-phenylalanine]
water solubility: > 2000 µM | effect on food intake and obesity (mice): effectively reduce food intake and obesity
